Reference: ChEMBL document CHEMBL1147711, “Tetrazole thioacetanilides: potent non-nucleoside inhibitors of WT HIV reverse transcriptase and its K103N mutant” (Bioorg Med Chem Lett, 2006)

Tested on: Human immunodeficiency virus 1
Assay: Antiviral activity against HIV1 in presence of 10% FBS
Type: functional
Conditions: read-out: CIC95

`Cc1cc(C)c(-n2nnnc2SCC(=O)Nc2ccc([N+](=O)[O-])cc2)c(C)c1` and `Cc1cc(C)c(-n2nnnc2SCC(=O)Nc2cccc([N+](=O)[O-])c2)c(C)c1` cannot be ordered by IC95: greater than 5000 nM for the first, greater than 5000 nM for the second.

Going from `O=C(CSc1nnnn1-c1ccc(Cl)c(Cl)c1)Nc1ccccc1[N+](=O)[O-]` to `O=C(CSc1nnnn1-c1c(Cl)cccc1Cl)Nc1ccccc1[N+](=O)[O-]`, the IC95 falls from greater than 5000 nM to 15 nM.

First: Cc1c(Cl)cccc1-n1nnnc1SCC(=O)Nc1ccccc1[N+](=O)[O-]
Second: Cc1ccc(Cl)cc1-n1nnnc1SCC(=O)Nc1ccccc1[N+](=O)[O-]
The IC95 of the first is 9.8-fold lower: 8 nM for the first, 78 nM for the second.

First: Cc1cc(C)c(-n2nnnc2SCC(=O)Nc2ccc(S(N)(=O)=O)cc2)c(C)c1
Second: Cc1cc(C)c(-n2nnnc2SCC(=O)Nc2ccc(Cl)cc2[N+](=O)[O-])c(C)c1
The IC95 of the first is 40-fold higher: 1250 nM for the first, 31 nM for the second.

Going from `NS(=O)(=O)c1ccc(NC(=O)CSc2nnnn2-c2cc(Cl)ccc2Cl)c(Cl)c1` to `NS(=O)(=O)c1ccc(NC(=O)CSc2nnnn2-c2cccc(Cl)c2Cl)c(Cl)c1`, the IC95 rises from 16 nM to 62 nM (3.9-fold).

Compared with `Cc1cc(C)c(-n2nnnc2SCC(=O)Nc2ccc([N+](=O)[O-])cc2Cl)c(C)c1`, `Cc1cc(C)c(-n2nnnc2SCC(=O)Nc2ccc(C(N)=O)cc2Cl)c(C)c1` is 9.8-fold lower in IC95: 78 nM for the first, 8 nM for the second.

First: Cc1cc(C)c(-n2nnnc2SCC(=O)Nc2ccc(C(=O)NCCCN(C)C)cc2Cl)c(C)c1
Second: Cc1cc(C)c(-n2nnnc2SCC(=O)Nc2ccc(OCCCN(C)C)cc2Cl)c(C)c1
The IC95 of the first is 7.8-fold lower: 8 nM for the first, 62 nM for the second.

Tested on: Human immunodeficiency virus type 1 reverse transcriptase (Human immunodeficiency virus 1), Q72547 [UNDEFINED MUTATION]
Assay: Ratio of K103N mutant IC50 to wild type Reverse Transcriptase IC50
Conditions: not given

In order of rising Ratio:
1. Cc1ccc(Cl)cc1-n1nnnc1SCC(=O)Nc1ccccc1[N+](=O)[O-]  1
2. NS(=O)(=O)c1ccc(NC(=O)CSc2nnnn2-c2cc(Cl)ccc2Cl)c(Cl)c1  1
3. NS(=O)(=O)c1ccc(NC(=O)CSc2nnnn2-c2cccc(Cl)c2Cl)c(Cl)c1  1
4. O=C(CSc1nnnn1-c1c(Cl)cccc1Cl)Nc1ccccc1[N+](=O)[O-]  1
5. O=C(CSc1nnnn1-c1ccc(Cl)c(Cl)c1)Nc1ccccc1[N+](=O)[O-]  2
6. Cc1cc(C)c(-n2nnnc2SCC(=O)Nc2ccc(C(=O)NCCCN(C)C)cc2Cl)c(C)c1  2
7. Cc1cc(C)c(-n2nnnc2SCC(=O)Nc2ccc(C(N)=O)cc2Cl)c(C)c1  2
8. Cc1c(Cl)cccc1-n1nnnc1SCC(=O)Nc1ccccc1[N+](=O)[O-]  3
9. Cc1cc(C)c(-n2nnnc2SCC(=O)Nc2ccc(Cl)cc2[N+](=O)[O-])c(C)c1  3
10. Cc1cc(C)c(-n2nnnc2SCC(=O)Nc2ccc([N+](=O)[O-])cc2Cl)c(C)c1  5
11. Cc1cc(C)c(-n2nnnc2SCC(=O)Nc2ccc(OCCCN(C)C)cc2Cl)c(C)c1  5

Target: Human immunodeficiency virus type 1 reverse transcriptase (Human immunodeficiency virus 1, UniProt Q72547)
Assay: Inhibition of HIV1 wild type Reverse Transcriptase
Conditions: not given

Compared with `Cc1cc(C)c(-n2nnnc2SCC(=O)Nc2ccc([N+](=O)[O-])cc2)c(C)c1`, `Cc1cc(C)c(-n2nnnc2SCC(=O)Nc2cccc([N+](=O)[O-])c2)c(C)c1` is lower in IC50: greater than 5000 nM for the first, 200 nM for the second.

Going from `O=C(CSc1nnnn1-c1ccc(Cl)c(Cl)c1)Nc1ccccc1[N+](=O)[O-]` to `O=C(CSc1nnnn1-c1c(Cl)cccc1Cl)Nc1ccccc1[N+](=O)[O-]`, the IC50 falls from 230 nM to 4 nM (58-fold).

First: Cc1c(Cl)cccc1-n1nnnc1SCC(=O)Nc1ccccc1[N+](=O)[O-]
Second: Cc1ccc(Cl)cc1-n1nnnc1SCC(=O)Nc1ccccc1[N+](=O)[O-]
The IC50 of the first is 7.7-fold lower: 3 nM for the first, 23 nM for the second.

Compared with `Cc1cc(C)c(-n2nnnc2SCC(=O)Nc2ccc(S(N)(=O)=O)cc2)c(C)c1`, `Cc1cc(C)c(-n2nnnc2SCC(=O)Nc2ccc(Cl)cc2[N+](=O)[O-])c(C)c1` is 310-fold lower in IC50: 1250 nM for the first, 4 nM for the second.

First: NS(=O)(=O)c1ccc(NC(=O)CSc2nnnn2-c2cc(Cl)ccc2Cl)c(Cl)c1
Second: NS(=O)(=O)c1ccc(NC(=O)CSc2nnnn2-c2cccc(Cl)c2Cl)c(Cl)c1
The IC50 of the first is 3-fold lower: 3 nM for the first, 9 nM for the second.

Going from `Cc1cc(C)c(-n2nnnc2SCC(=O)Nc2ccc([N+](=O)[O-])cc2Cl)c(C)c1` to `Cc1cc(C)c(-n2nnnc2SCC(=O)Nc2ccc(C(N)=O)cc2Cl)c(C)c1`, the IC50 falls from 22 nM to 3 nM (7.3-fold).

First: Cc1cc(C)c(-n2nnnc2SCC(=O)Nc2ccc(C(=O)NCCCN(C)C)cc2Cl)c(C)c1
Second: Cc1cc(C)c(-n2nnnc2SCC(=O)Nc2ccc(OCCCN(C)C)cc2Cl)c(C)c1
The IC50 of the first is 2.6-fold lower: 5 nM for the first, 13 nM for the second.

Tested on: not listed separately
Assay: Oral bioavailability in rat at 3 mg/kg, iv and po
Type: ADME, organism-based
Conditions: in vivo

Work on `NS(=O)(=O)c1ccc(NC(=O)CSc2nnnn2-c2cc(Cl)ccc2Cl)c(Cl)c1` yielded a bioavailability of 33%.

Tested on: Human immunodeficiency virus 1
Assay: Antiviral activity against HIV1 in presence of 50% NHS
Type: functional
Conditions: read-out: CIC95

`Cc1cc(C)c(-n2nnnc2SCC(=O)Nc2ccc([N+](=O)[O-])cc2)c(C)c1` and `Cc1cc(C)c(-n2nnnc2SCC(=O)Nc2ccc(S(N)(=O)=O)cc2)c(C)c1` cannot be ordered by IC95: greater than 5000 nM for the first, greater than 5000 nM for the second.

First: O=C(CSc1nnnn1-c1ccc(Cl)c(Cl)c1)Nc1ccccc1[N+](=O)[O-]
Second: O=C(CSc1nnnn1-c1c(Cl)cccc1Cl)Nc1ccccc1[N+](=O)[O-]
The IC95 of the first is higher: greater than 5000 nM for the first, 62 nM for the second.

Going from `Cc1c(Cl)cccc1-n1nnnc1SCC(=O)Nc1ccccc1[N+](=O)[O-]` to `Cc1ccc(Cl)cc1-n1nnnc1SCC(=O)Nc1ccccc1[N+](=O)[O-]`, the IC95 rises from 31 nM to 1250 nM (40-fold).

Compared with `Cc1cc(C)c(-n2nnnc2SCC(=O)Nc2ccc(Cl)cc2[N+](=O)[O-])c(C)c1`, `Cc1cc(C)c(-n2nnnc2SCC(=O)Nc2ccc([N+](=O)[O-])cc2Cl)c(C)c1` is 3.1-fold higher in IC95: 400 nM for the first, 1250 nM for the second.

First: NS(=O)(=O)c1ccc(NC(=O)CSc2nnnn2-c2cc(Cl)ccc2Cl)c(Cl)c1
Second: NS(=O)(=O)c1ccc(NC(=O)CSc2nnnn2-c2cccc(Cl)c2Cl)c(Cl)c1
The IC95 of the first is 2-fold lower: 125 nM for the first, 250 nM for the second.

First: Cc1cc(C)c(-n2nnnc2SCC(=O)Nc2ccc(C(=O)NCCCN(C)C)cc2Cl)c(C)c1
Second: Cc1cc(C)c(-n2nnnc2SCC(=O)Nc2ccc(OCCCN(C)C)cc2Cl)c(C)c1
The IC95 of the first is 3.9-fold lower: 16 nM for the first, 62 nM for the second.

With `Cc1cc(C)c(-n2nnnc2SCC(=O)Nc2ccc(C(N)=O)cc2Cl)c(C)c1` the IC95 was 16 nM.
